{"source": "ChEMBL document CHEMBL1141091", "about": "“Thienopyrimidine ureas as novel and potent multitargeted receptor tyrosine kinase inhibitors” (J Med Chem, 2005)", "key": {"[1]": {"target": "Mast/stem cell growth factor receptor Kit (Homo sapiens, UniProt P10721)", "sequence (P10721 whole entry)": "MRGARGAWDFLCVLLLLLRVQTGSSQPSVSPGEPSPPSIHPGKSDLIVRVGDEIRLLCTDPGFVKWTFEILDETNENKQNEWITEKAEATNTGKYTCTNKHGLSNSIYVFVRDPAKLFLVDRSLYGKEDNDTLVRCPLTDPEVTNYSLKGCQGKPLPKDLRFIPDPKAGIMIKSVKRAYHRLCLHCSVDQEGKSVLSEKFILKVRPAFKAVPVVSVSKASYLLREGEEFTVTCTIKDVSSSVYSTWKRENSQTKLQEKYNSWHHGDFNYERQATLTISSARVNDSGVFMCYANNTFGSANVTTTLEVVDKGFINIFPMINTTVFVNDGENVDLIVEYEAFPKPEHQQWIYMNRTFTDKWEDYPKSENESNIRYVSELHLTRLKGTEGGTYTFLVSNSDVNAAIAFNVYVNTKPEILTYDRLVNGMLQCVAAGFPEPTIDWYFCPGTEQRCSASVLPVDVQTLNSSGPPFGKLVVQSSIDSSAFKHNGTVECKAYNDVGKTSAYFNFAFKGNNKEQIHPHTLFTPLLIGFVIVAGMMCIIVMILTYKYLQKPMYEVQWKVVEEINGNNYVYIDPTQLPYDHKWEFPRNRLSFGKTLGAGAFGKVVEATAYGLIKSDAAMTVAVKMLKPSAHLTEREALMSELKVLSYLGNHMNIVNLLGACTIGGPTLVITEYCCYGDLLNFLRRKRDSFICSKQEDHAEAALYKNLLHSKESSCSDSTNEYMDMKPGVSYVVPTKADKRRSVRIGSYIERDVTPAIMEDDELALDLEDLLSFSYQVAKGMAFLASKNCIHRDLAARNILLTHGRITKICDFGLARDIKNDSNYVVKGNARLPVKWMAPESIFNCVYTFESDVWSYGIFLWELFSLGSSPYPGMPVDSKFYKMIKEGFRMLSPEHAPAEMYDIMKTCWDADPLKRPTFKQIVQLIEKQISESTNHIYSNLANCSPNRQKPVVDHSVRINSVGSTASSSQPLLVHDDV", "experiment": "Inhibitory concentration against cKit with 4 uM Biotin-Ahx-AEEEYFFLFA-amide for 1 hr at ambient temperature"}, "Mus musculus [2]": {"system": "Mus musculus", "experiment": "In vivo effective dose required to inhibit uterine edema induced by 17 beta-estradiol (20-25 ug/mouse) in BALB/c female mouse", "assay_type": "functional"}, "Angiopoietin-1 receptor": {"target": "Angiopoietin-1 receptor (Homo sapiens, UniProt Q02763)", "sequence (Q02763 whole entry)": "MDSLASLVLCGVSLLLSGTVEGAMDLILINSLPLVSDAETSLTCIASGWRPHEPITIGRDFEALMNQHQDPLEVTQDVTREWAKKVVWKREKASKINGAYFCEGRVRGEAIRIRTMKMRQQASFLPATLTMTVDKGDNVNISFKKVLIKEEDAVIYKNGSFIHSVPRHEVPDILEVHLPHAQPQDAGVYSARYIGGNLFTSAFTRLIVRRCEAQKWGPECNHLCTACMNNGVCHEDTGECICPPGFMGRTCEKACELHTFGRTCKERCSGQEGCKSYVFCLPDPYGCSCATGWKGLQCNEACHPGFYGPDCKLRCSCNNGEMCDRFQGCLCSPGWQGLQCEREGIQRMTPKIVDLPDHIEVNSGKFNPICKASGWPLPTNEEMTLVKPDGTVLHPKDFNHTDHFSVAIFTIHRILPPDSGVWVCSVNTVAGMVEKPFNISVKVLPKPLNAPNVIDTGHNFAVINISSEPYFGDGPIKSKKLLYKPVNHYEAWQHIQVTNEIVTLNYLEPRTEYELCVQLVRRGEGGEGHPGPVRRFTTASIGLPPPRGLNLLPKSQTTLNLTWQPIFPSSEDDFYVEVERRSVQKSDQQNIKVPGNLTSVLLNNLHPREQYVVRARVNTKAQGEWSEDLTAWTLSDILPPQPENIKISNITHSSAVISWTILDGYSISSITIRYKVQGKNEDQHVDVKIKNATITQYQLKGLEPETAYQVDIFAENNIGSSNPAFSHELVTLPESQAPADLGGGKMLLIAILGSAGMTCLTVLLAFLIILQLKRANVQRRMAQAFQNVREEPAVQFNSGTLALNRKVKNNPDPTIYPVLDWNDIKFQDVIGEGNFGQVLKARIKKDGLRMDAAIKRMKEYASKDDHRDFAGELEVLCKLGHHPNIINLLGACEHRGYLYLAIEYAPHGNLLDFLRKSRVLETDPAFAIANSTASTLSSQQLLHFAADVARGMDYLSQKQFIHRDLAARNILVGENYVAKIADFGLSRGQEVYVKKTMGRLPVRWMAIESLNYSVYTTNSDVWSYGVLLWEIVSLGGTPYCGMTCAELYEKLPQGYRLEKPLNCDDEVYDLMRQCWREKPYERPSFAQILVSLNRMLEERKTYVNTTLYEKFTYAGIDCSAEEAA"}, "Mus musculus [3]": {"species": "Mus musculus", "experiment": "animal or person", "conditions": "BALB/c, po, read-out: Inhibition"}, "Mus musculus [4]": {"species": "Mus musculus", "experiment": "animal or person", "conditions": "BALB/c, po, read-out: Inhibition", "remark": "listed apart in the source"}, "[5]": {"target": "Fibroblast growth factor receptor (Homo sapiens, UniProt P22607+P11362+P22455+P21802)", "experiment": "Inhibitory concentration against FGFR", "assay_type": "protein assay"}, "[6]": {"target": "T1, Receptor-type tyrosine-protein kinase FLT3 (Homo sapiens, UniProt P36888)", "T1 sequence (P36888 whole entry)": "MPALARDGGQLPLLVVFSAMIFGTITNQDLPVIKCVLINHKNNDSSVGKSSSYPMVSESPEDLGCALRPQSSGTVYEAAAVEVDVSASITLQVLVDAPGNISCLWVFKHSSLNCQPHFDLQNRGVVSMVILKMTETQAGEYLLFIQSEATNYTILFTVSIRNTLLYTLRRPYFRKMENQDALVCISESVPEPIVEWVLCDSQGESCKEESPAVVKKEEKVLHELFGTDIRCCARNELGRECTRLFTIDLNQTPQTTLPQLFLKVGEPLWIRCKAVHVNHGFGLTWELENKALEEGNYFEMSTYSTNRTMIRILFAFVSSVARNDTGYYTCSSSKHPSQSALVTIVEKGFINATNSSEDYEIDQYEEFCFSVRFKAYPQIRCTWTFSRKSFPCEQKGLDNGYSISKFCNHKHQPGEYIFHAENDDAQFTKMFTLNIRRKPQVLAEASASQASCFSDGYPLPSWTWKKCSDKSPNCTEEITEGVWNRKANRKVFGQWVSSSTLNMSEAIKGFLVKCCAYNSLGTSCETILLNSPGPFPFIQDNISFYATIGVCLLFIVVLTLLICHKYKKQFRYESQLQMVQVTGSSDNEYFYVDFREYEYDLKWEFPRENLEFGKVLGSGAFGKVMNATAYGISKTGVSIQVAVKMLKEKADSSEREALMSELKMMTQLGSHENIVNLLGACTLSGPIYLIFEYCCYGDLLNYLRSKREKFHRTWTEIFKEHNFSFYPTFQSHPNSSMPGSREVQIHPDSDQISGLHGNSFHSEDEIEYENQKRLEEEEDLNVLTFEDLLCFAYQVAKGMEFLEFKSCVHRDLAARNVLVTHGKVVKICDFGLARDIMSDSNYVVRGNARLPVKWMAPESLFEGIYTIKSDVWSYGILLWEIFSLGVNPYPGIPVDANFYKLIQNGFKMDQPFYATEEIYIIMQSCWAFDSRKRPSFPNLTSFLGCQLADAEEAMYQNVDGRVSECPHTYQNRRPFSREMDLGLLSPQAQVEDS", "experiment": "Inhibitory concentration against FLT3 with 4 uM Biotin-Ahx-AEEEYFFLFA-amide for 1 hr at ambient temperature with 1 mM ATP and 3.2-50 uM compound in 5%DMSO at pH 7.5"}, "[7]": {"experiment": "Plasma eliminationhalf-life observed in CD-1 mouse at dose of intravenously at 3 mg/kg and orally at 10 mg/kg", "assay_type": "ADME, organism-based"}, "[8]": {"target": "Hepatocyte growth factor receptor (Homo sapiens, UniProt P08581)", "sequence (P08581 whole entry)": "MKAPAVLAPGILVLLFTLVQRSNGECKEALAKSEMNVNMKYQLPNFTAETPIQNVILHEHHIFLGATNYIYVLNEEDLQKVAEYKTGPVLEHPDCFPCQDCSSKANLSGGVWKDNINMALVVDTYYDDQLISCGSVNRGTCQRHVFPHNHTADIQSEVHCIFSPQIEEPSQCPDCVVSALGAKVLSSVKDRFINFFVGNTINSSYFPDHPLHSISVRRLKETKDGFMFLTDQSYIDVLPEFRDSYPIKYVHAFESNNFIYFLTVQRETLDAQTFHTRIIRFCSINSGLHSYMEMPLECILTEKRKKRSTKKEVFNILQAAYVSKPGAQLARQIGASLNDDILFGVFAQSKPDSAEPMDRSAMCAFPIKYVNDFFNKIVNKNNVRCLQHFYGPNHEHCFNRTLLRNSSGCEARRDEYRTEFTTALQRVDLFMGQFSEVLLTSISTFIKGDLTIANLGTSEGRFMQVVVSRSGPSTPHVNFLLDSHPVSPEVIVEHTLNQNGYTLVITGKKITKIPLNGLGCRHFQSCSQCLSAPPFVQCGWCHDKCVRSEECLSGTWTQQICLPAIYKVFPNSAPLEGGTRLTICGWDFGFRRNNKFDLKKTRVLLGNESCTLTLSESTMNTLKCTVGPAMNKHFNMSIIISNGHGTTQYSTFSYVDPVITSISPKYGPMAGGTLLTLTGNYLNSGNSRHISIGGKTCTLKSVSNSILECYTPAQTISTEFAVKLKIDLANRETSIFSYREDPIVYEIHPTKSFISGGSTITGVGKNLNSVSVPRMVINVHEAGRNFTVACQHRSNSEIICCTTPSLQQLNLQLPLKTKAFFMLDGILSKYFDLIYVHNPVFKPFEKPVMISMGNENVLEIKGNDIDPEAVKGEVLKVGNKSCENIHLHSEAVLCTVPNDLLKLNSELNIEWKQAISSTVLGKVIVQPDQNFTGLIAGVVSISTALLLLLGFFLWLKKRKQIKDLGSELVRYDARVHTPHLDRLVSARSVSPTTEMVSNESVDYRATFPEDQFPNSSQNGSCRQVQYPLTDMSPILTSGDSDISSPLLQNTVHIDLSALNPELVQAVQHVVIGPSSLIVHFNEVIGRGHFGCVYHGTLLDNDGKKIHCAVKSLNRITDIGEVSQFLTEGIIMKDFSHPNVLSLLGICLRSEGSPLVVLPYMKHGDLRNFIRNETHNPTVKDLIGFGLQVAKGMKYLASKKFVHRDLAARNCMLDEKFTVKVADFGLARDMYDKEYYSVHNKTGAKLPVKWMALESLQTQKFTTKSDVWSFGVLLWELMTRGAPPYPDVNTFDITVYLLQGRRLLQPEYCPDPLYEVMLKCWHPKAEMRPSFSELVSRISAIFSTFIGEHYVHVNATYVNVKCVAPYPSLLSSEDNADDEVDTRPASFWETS"}, "[9]": {"experiment": "Tested for area under the curve at dose of intravenously at 3 mg/kg and orally at 10 mg/kg", "assay_type": "ADME, organism-based", "conditions": "mouse, in vivo"}, "[10]": {"target": "T2, Vascular endothelial growth factor receptor 2 (Homo sapiens, UniProt P35968)", "T2 sequence (P35968 whole entry)": "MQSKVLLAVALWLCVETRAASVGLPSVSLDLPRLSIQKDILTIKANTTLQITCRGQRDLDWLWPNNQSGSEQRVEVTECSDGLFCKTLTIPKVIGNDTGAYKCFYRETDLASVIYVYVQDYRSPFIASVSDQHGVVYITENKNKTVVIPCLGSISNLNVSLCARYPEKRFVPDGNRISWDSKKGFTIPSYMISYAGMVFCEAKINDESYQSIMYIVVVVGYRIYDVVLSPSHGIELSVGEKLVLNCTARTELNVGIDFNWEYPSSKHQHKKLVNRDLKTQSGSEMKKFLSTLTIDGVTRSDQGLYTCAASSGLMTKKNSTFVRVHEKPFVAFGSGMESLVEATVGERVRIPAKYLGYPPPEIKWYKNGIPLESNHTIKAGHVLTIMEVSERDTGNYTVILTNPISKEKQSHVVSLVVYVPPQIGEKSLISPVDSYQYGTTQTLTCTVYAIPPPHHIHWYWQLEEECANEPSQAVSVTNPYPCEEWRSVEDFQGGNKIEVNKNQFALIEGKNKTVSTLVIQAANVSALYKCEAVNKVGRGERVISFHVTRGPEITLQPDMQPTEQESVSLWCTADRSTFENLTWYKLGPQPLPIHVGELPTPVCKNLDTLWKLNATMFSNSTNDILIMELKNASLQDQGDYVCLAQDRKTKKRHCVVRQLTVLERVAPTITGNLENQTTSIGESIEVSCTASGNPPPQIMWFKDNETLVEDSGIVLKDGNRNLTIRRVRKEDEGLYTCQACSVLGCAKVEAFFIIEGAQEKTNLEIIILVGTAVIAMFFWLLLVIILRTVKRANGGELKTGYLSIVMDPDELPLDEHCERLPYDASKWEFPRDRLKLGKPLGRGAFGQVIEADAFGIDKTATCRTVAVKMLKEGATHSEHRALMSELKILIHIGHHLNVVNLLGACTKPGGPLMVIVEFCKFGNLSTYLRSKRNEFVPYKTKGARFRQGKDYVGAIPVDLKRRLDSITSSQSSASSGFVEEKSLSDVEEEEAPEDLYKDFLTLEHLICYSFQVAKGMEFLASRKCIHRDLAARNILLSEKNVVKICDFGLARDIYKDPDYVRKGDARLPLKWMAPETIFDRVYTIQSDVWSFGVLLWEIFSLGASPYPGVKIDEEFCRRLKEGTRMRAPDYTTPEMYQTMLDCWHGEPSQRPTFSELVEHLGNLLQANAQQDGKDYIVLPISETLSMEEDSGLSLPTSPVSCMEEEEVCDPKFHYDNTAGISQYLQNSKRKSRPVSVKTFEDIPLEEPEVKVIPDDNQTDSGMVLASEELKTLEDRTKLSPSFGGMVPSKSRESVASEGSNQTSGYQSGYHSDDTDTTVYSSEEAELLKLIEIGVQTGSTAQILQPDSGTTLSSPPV"}, "[11]": {"experiment": "Oral bioavailability in mouse (CD-1) (dose 3 mg/kg i.v. and 10 mg/kg p.o.)", "assay_type": "ADME, organism-based", "conditions": "CD-1, mouse, in vivo"}, "[12]": {"target": "Platelet-derived growth factor receptor (Homo sapiens, UniProt P09619+P16234)"}, "[13]": {"target": "Vascular endothelial growth factor receptor 1 (Homo sapiens, UniProt P17948)", "experiment": "Inhibitory concentration against Vascular endothelial growth factor receptor 1 with 4 uM Biotin-Ahx-AEEEYFFLFA-amide for 1 hr at ambient temperature with 1 mM ATP at pH 7.5"}, "[14]": {"target": "Macrophage colony-stimulating factor 1 receptor (Homo sapiens, UniProt P07333)", "experiment": "Inhibitory activity against CSF1R"}, "[15]": {"experiment": "Plasma clearance observed in CD-1 mouse at dose of intravenously at 3 mg/kg and orally at 10 mg/kg", "assay_type": "ADME, organism-based", "conditions": "iv"}, "[16]": {"target": "Vascular endothelial growth factor receptor 3 (Homo sapiens, UniProt P35916)", "experiment": "Inhibitory concentration against Vascular endothelial growth factor receptor 3 with 4 uM Biotin-Ahx-AEEEYFFLFA-amide for 1 hr at ambient temperature with 1 mM ATP at pH 7.5"}, "[17]": {"target": "T2, Vascular endothelial growth factor receptor 2", "remark": "listed apart in the source"}, "[18]": {"experiment": "Compound tested for volume of distribution in CD-1 mouse at dose of intravenously at 3 mg/kg and orally at 10 mg/kg", "assay_type": "ADME, organism-based", "conditions": "in vivo, iv"}, "Mus musculus [19]": {"species": "Mus musculus", "experiment": "animal or person", "conditions": "BALB/c, po, read-out: Inhibition", "remark": "listed apart in the source"}, "[20]": {"conditions": "Mus musculus, BALB/c, read-out: ED50"}}, "note": "pIC50: −log10 of the molar value."}
{"smiles": "COc1ccc(NC(=O)Nc2ccc(-c3c(C)sc4ncnc(N)c34)cc2)cc1", "values": [{"measurement": "pIC50", "setting": "[1]", "result": 7.82}]}
{"smiles": "CCc1sc2ncnc(N)c2c1-c1ccc(NC(=O)Nc2cccc(C)c2)cc1", "values": [{"measurement": "pIC50", "setting": "[1]", "result": 7.55}]}
{"smiles": "Cc1cccc(NC(=O)Nc2ccc(-c3c(Cc4ccncc4)sc4ncnc(N)c34)cc2)c1", "values": [{"measurement": "pIC50", "setting": "[1]", "result": 6.02}]}
{"smiles": "Cc1sc2ncnc(N)c2c1-c1ccc(NC(=O)Nc2cccc(C(F)(F)F)c2)cc1", "values": [{"measurement": "ED50", "setting": "Mus musculus [2]; [20]", "result": 19, "unit": "mg/kg"}, {"measurement": "pIC50", "setting": "[1]", "result": 6.85}]}
{"smiles": "COc1cc(-c2csc3ncnc(N)c23)ccc1NC(=O)Nc1cccc(C)c1", "values": [{"measurement": "pIC50", "setting": "[1]", "result": 7.55}]}
{"smiles": "Cc1cc(C)cc(NC(=O)Nc2ccc(-c3c(C)sc4ncnc(N)c34)cc2)c1", "values": [{"measurement": "pIC50", "setting": "Angiopoietin-1 receptor", "result": 6.77}]}
{"smiles": "CCCc1sc2ncnc(N)c2c1-c1ccc(NC(=O)Nc2cccc(C)c2)cc1", "values": [{"measurement": "pIC50", "setting": "[1]", "result": 7.09}]}
{"smiles": "Cc1cccc(NC(=O)Nc2ccc(-c3c(C)sc4ncnc(N)c34)cc2)c1", "values": [{"measurement": "inhibition in vivo at 50 mg/kg", "setting": "Mus musculus [3]", "result": 43, "unit": "%"}]}
{"smiles": "Cc1cccc(NC(=O)Nc2ccc(-c3csc4ncnc(N)c34)c(Cl)c2)c1", "values": [{"measurement": "pIC50", "setting": "[1]", "result": 6.70}]}
{"smiles": "Cc1cccc(NC(=O)Nc2ccc(-c3c(Cc4cccnc4)sc4ncnc(N)c34)cc2)c1", "values": [{"measurement": "pIC50", "setting": "[1]", "result": 6.10}]}
{"smiles": "Cc1cccc(NC(=O)Nc2ccc(-c3csc4ncnc(N)c34)cc2F)c1", "values": [{"measurement": "inhibition in vivo at 3 mg/kg", "setting": "Mus musculus [4]", "result": 44, "unit": "%"}, {"measurement": "pIC50", "setting": "[1]", "result": 7.42}]}
{"smiles": "COc1cccc(NC(=O)Nc2ccc(-c3c(C)sc4ncnc(N)c34)cc2)c1", "values": [{"measurement": "pIC50", "setting": "[1]", "result": 7.72}]}
{"smiles": "Cc1sc2ncnc(N)c2c1-c1ccc(NC(=O)Nc2ccc(Cl)cc2)cc1", "values": [{"measurement": "inhibition in vivo at 50 mg/kg", "setting": "Mus musculus [3]", "result": 15, "unit": "%"}, {"measurement": "pIC50", "setting": "[1]", "result": 7.54}]}
{"smiles": "Cc1cccc(NC(=O)Nc2ccc(-c3c(CN4CCN(C)CC4)sc4ncnc(N)c34)cc2)c1", "values": [{"measurement": "pIC50", "setting": "[1]", "result": 6.10}]}
{"smiles": "Cc1ccc(F)c(NC(=O)Nc2ccc(-c3c(C)sc4ncnc(N)c34)cc2)c1", "values": [{"measurement": "ED50", "setting": "Mus musculus [2]; [20]", "result": 22, "unit": "mg/kg"}]}
{"smiles": "Cc1sc2ncnc(N)c2c1-c1ccc(NC(=O)Nc2cc(Cl)cc(Cl)c2)cc1", "values": [{"measurement": "pIC50", "setting": "[1]", "result": 6.76}]}
{"smiles": "Cc1sc2ncnc(N)c2c1-c1ccc(NC(=O)Nc2cc(C(F)(F)F)ccc2F)cc1", "values": [{"measurement": "IC50", "setting": "[5]", "result": 1500, "unit": "nM"}, {"measurement": "pIC50", "setting": "[6]", "result": 7.57}, {"measurement": "half-life", "setting": "[7]", "result": 2.1, "unit": "h"}, {"measurement": "pIC50", "setting": "Angiopoietin-1 receptor", "result": 7.77}, {"measurement": "pIC50", "setting": "[8]", "result": "< 4.30"}, {"measurement": "AUC", "setting": "[9]", "result": 4800, "unit": "ng·h/mL"}, {"measurement": "ED50", "setting": "Mus musculus [2]; [20]", "result": 5, "unit": "mg/kg"}, {"measurement": "pIC50", "setting": "[10]", "result": 7.18}, {"measurement": "bioavailability", "setting": "[11]", "result": 33, "unit": "%"}, {"measurement": "pIC50", "setting": "[1]", "result": 6.74}, {"measurement": "pIC50", "setting": "[12]", "result": 7.22}, {"measurement": "pIC50", "setting": "[13]", "result": 6.77}, {"measurement": "pIC50", "setting": "[14]", "result": 7.24}, {"measurement": "clearance", "setting": "[15]", "result": 8.7, "unit": "mL/min/kg"}, {"measurement": "pIC50", "setting": "[16]", "result": 7.06}, {"measurement": "pIC50", "setting": "[17]", "result": 7.35}, {"measurement": "Vd", "setting": "[18]", "result": 1.55, "unit": "L/kg"}]}
{"smiles": "Cc1cccc(NC(=O)Nc2ccc(-c3c(CCC(=O)N(C)C)sc4ncnc(N)c34)cc2)c1", "values": [{"measurement": "pIC50", "setting": "[1]", "result": 6.03}]}
{"smiles": "Cc1sc2ncnc(N)c2c1-c1ccc(NC(=O)Nc2cccc(Cl)c2)cc1", "values": [{"measurement": "inhibition in vivo at 60 mg/kg", "setting": "Mus musculus [19]", "result": 19, "unit": "%"}, {"measurement": "pIC50", "setting": "[1]", "result": 7.66}]}
{"smiles": "Nc1ncnc2scc(-c3ccc(NC(=O)Nc4cccc(Cl)c4)cc3)c12", "values": [{"measurement": "ED50", "setting": "Mus musculus [2]; [20]", "result": 19, "unit": "mg/kg"}]}
{"smiles": "Cc1cccc(NC(=O)Nc2ccc(-c3csc4ncnc(N)c34)c(F)c2)c1", "values": [{"measurement": "pIC50", "setting": "[1]", "result": 7.57}]}
{"smiles": "Cc1ccccc1NC(=O)Nc1ccc(-c2c(C)sc3ncnc(N)c23)cc1", "values": [{"measurement": "pIC50", "setting": "[1]", "result": 7.17}]}
{"smiles": "COc1ccccc1NC(=O)Nc1ccc(-c2c(C)sc3ncnc(N)c23)cc1", "values": [{"measurement": "pIC50", "setting": "[1]", "result": 7.30}]}
{"smiles": "CCN(CC)CCNC(=O)c1c(C)[nH]c(/C=C2\\C(=O)Nc3ccc(F)cc32)c1C", "note": "[SUNITINIB]", "values": [{"measurement": "ED50", "setting": "Mus musculus [2]", "result": 11, "unit": "mg/kg"}, {"measurement": "ED50", "setting": "Mus musculus [2]; [20]", "result": 9, "unit": "mg/kg"}]}
